# Assay results taken from patent US5281603A, “Angiotensin II receptor blocking 2,3,6 substituted quinazolinones” (American Cyanamid Company, priority 1993, dated 1994).
# Where “and” joins values, the source holds several entries; their conditions need not be identical. Equal values may be shown once.
# Test system: Angiotensin II vasopressor response
# Assay: AII challenge: antagonism of angiotensin II vasopressor response in conscious spontaneously hypertensive rats
# Format: in vivo, rat (Male Okamoto-Aoki SHR)
# Conditions: 3 mg/kg I.V.; for % Inhibition / Average Change: SHR n=2; for Response After AII / Change / Control Before AII: individual SHR
# Text: By administering a compound of this invention to a rat, and then challenging with angiotensin II, a blockage of the vasopressor response is realized.
# Conscious Male Okamoto-Aoki SHR, 16-20 weeks old, weighing approximately 330 g are purchased from Charles River Labs (Wilmington, Mass.). Conscious rats are restrained in a supine position with elastic tape. The area at the base of the tail is locally anesthetized by subcutaneous infiltration with 2% procaine. The ventral caudal artery and vein are isolated, and a cannula made of polyethylene (PE) 10-20 tubing (fused together by heat) is passed into the lower abdominal aorta and vena cava, respectively. The cannula is secured, heparinized (1,000 I.U./ml), sealed and the wound is closed. The animals are placed in plastic restraining cages in an upright position. The cannula is attached to a Statham P23Db pressure transducer, and pulsatile blood pressure is recorded to 10-15 minutes with a Gould Brush recorder. (Chan et al., (Drug Development Res., 18:75-94, 1989).
# Angiotensin II (human sequence, Sigma Chem. Co., St. […] Then a test compound, vehicle or a known angiotensin II antagonist is administered i.v., i.p. or orally to each set of rats. The two doses of angiotensin II are given to each rat again at 30, 60, 90, 120, 180, 240 and 300 minutes post dosing the compound or vehicle. The vasopressor response of angiotensin II is measured for the increase in systolic blood pressure in mmHg. The percentage of antagonism or blockade of the vasopressor response of angiotensin II by a compound is calculated using the vasopressor response (increase in systolic blood pressure) of angiotensin II of each rat predosing the compound as 100%. A compound is considered active if at 30 mg/kg i.v. it antagonized at least 50% of the response.
# [1] = AII 0.01 mcg/kg IV (so in the source), 60 min post dose
# [2] = AII 0.01 mcg/kg IV (so in the source), 90 min post dose
# [3] = AII 0.05 mcg/kg IV, 30 min post dose
# [4] = AII 0.05 mcg/kg IV, 60 min post dose
# [5] = AII 0.05 mcg/kg IV, 90 min post dose
# [6] = AII 0.05 mcg/kg IV, 120 min post dose
# [7] = AII 0.05 mcg/kg IV, 180 min post dose
# [8] = AII 0.05 mcg/kg IV, 240 min post dose
# [9] = AII 0.05 mcg/kg IV, 300 min post dose
# [10] = AII 0.1 mcg/kg IV, 30 min post dose
# [11] = AII 0.1 mcg/kg IV, 120 min post dose
# [12] = AII 0.1 mcg/kg IV, 180 min post dose
# [13] = AII 0.1 mcg/kg IV, 240 min post dose
# [14] = AII 0.1 mcg/kg IV, 300 min post dose
# [15] = AII 0.01 mcg/kg IV (so in the source), 60 min post dose, 3 mg/kg
# [16] = AII 0.01 mcg/kg IV (so in the source), 90 min post dose, 3 mg/kg
# [17] = AII 0.05 mcg/kg IV, 30 min post dose, 3 mg/kg
# [18] = AII 0.05 mcg/kg IV, 60 min post dose, 3 mg/kg
# [19] = AII 0.05 mcg/kg IV, 90 min post dose, 3 mg/kg
# [20] = AII 0.05 mcg/kg IV, 120 min post dose, 3 mg/kg
# [21] = AII 0.05 mcg/kg IV, 180 min post dose, 3 mg/kg
# [22] = AII 0.05 mcg/kg IV, 240 min post dose, 3 mg/kg
# [23] = AII 0.05 mcg/kg IV, 300 min post dose, 3 mg/kg
# [24] = AII 0.1 mcg/kg IV, 30 min post dose, 3 mg/kg
# [25] = AII 0.1 mcg/kg IV, 120 min post dose, 3 mg/kg
# [26] = AII 0.1 mcg/kg IV, 180 min post dose, 3 mg/kg
# [27] = AII 0.1 mcg/kg IV, 240 min post dose, 3 mg/kg
# [28] = AII 0.1 mcg/kg IV, 300 min post dose, 3 mg/kg
structure (smiles),measurement,setting,value
"CCCCc1nc2ccc([C@@]3(C)NN[C@@H]4C(=O)N(C)C(=O)[C@@H]43)cc2c(=O)n1Cc1ccc(-c2ccccc2-c2nnn[nH]2)cc1 (relative stereo) [Example 10, (3-alpha,3aalpha,6aalpha)-3-[2-butyl-3,4-dihydro-4-oxo-3-[[2'-(1H-tetrazol-5-yl)-[1,1'-biphenyl]-4-yl]methyl]-6-quinazolinyl]-2,3,3a,6a-tetrahydro-3,5-dimethyl-pyrrolo[3,4-c]pyrazole-4,6(1H,5H)-dione]",% Inhibition,[1],53%
same,Average Change,[1],22.5 mmHg
same,% Inhibition,[2],47%
same,Average Change,[2],25 mmHg
same,% Inhibition,[3],66%
same,Average Change,[3],16 mmHg
same,% Inhibition,[4],68%
same,Average Change,[4],15 mmHg
same,% Inhibition,[5],63%
same,Average Change,[5],17.5 mmHg
same,% Inhibition,[6],47%
same,Average Change,[6],25 mmHg
same,% Inhibition,[7],47%
same,Average Change,[7],25 mmHg
same,% Inhibition,[8],47%
same,Average Change,[8],25 mmHg
same,% Inhibition,[9],32%
same,Average Change,[9],32.5 mmHg
same,% Inhibition,[10],53%
same,Average Change,[10],22.5 mmHg
same,% Inhibition,[11],47%
same,Average Change,[11],25 mmHg
same,% Inhibition,[12],37%
same,Average Change,[12],30 mmHg
same,% Inhibition,[13],40%
same,Average Change,[13],28.5 mmHg
same,% Inhibition,[14],23%
same,Average Change,[14],36.5 mmHg
same,Response After AII,[1],250 mmHg
same,Change,[15],25 mmHg and 20 mmHg
same,Control Before AII,[15],225 mmHg and 230 mmHg
same,Change,[2],25 mmHg
same,Control Before AII,[16],225 mmHg and 230 mmHg
same,Response After AII,[16],250 mmHg and 255 mmHg
same,Change,[17],20 mmHg and 12 mmHg
same,Control Before AII,[17],220 mmHg and 245 mmHg
same,Response After AII,[17],240 mmHg and 257 mmHg
same,Change,[4],15 mmHg
same,Control Before AII,[18],220 mmHg and 225 mmHg
same,Response After AII,[18],235 mmHg and 240 mmHg
same,Change,[19],20 mmHg and 15 mmHg
same,Control Before AII,[19],215 mmHg and 225 mmHg
same,Response After AII,[19],235 mmHg and 240 mmHg
same,Change,[20],20 mmHg and 30 mmHg
same,Control Before AII,[20],215 mmHg and 225 mmHg
same,Response After AII,[20],235 mmHg and 255 mmHg
same,Control Before AII,[7],210 mmHg
same,Change,[21],20 mmHg and 30 mmHg
same,Response After AII,[21],230 mmHg and 240 mmHg
same,Change,[8],25 mmHg
same,Control Before AII,[22],210 mmHg and 230 mmHg
same,Response After AII,[22],235 mmHg and 255 mmHg
same,Change,[23],30 mmHg and 35 mmHg
same,Control Before AII,[23],210 mmHg and 225 mmHg
same,Response After AII,[23],240 mmHg and 260 mmHg
same,Change,[24],20 mmHg and 25 mmHg
same,Control Before AII,[24],225 mmHg and 240 mmHg
same,Response After AII,[24],245 mmHg and 265 mmHg
same,Change,[11],25 mmHg
same,Control Before AII,[25],220 mmHg and 230 mmHg
same,Response After AII,[25],245 mmHg and 255 mmHg
same,Change,[26],40 mmHg and 20 mmHg
same,Control Before AII,[26],210 mmHg and 235 mmHg
same,Response After AII,[26],250 mmHg and 255 mmHg
same,Change,[27],32 mmHg and 25 mmHg
same,Control Before AII,[27],210 mmHg and 235 mmHg
same,Response After AII,[27],242 mmHg and 260 mmHg
same,Change,[28],40 mmHg and 33 mmHg
same,Control Before AII,[28],210 mmHg and 227 mmHg
same,Response After AII,[28],250 mmHg and 260 mmHg
